According to US20240299560A1, “DEOXYCHOLIC ACID-PEPTIDE CONJUGATE HAVING ANTI-OBESITY ACTIVITY AND USE THEREOF” (CAREGEN CO, LTD., priority 2020, published 2024):
Where a SMILES comes first, the peptide text is derived from it. [ ]: non-standard residue; d: D form. The star is where a group is joined. ξ: configuration not given here. Deoxycholoyl = C[C@H](CCC(=O)*)[C@H]1CC[C@H]2[C@@H]3CC[C@@H]4C[C@H](O)CC[C@]4(C)[C@H]3C[C@H](O)[C@]12C; ξF = NC(Cc1ccccc1)C(=O)O; ξL = CC(C)CC(N)C(=O)O; ξK = NCCCCC(N)C(=O)O; ξNva = CCCC(N)C(=O)O

Tests used:
white adipose tissue = experiment: Glycerol release (lipolysis) from cultured adipose tissue; format: cell-based, mice; conditions: for glycerol release amount: 1 μM, adipose tissue
Method: Neutral fat stored in adipose tissue was decomposed into fatty acids and glycerol for energy production or cell signaling. Therefore, the lipolysis effect of neutral fat accumulated in the adipose tissue was confirmed by measuring the release amount of free glycerol.
Specifically, in female mice fed with a high-fat diet (Rodent Diet with 60% Kcal Fat, Research Diets, USA), a fat pad, which was white adipose tissue, was isolated, and each 400 mg of adipose tissue per well was placed in a 12-well plate, and then cultured for 48 hours in a culture medium (DMEM media serum free) to be stabilized. During the culture, the peptide conjugate was treated at concentrations of 1 μM, 10 μM, and 100 μM, and as a positive control group, 20 nM of TNFα was treated and cultured for 48 hours to obtain a supernatant, and the amount of glycerol was measured using a glycerol colorimetric assay kit (Cayman chemical, USA).
(§1) In order to compare the lipolysis effects in the case of treating the deoxycholic acid-peptide conjugate and the case of treating the deoxycholic acid or the peptide of SEQ ID NO: 1 alone, the amount of glycerol released from the adipose tissue was measured in the same manner as in Experimental Example 3-1. A group treated with TNF-α was used as a positive control group.

[1] = Solubility in water, visual observation; format: physicochemical; conditions: 1 mg in 90 μL distilled water
Method: Solubilities of the deoxycholic acid-peptide conjugate prepared in Example 2 and deoxycholic acid were visually observed and compared.
Specifically, 90 μL of distilled water was added to an E. tube containing 1 mg each of the deoxycholic acid-peptide conjugate and the deoxycholic acid, and dissolution was confirmed.

3T3-L1 cells = experiment: Oil red O staining of fat accumulation in differentiated adipocytes; format: cell-based; conditions: 1 μM, 3T3-L1 adipocytes; for lipid accumulation amount: oil red O absorbance 510 nm
Method: 3T3-L1 cells as preadipocytes were purchased from the American Type Culture Collection (ATCC) and used in an experiment. 3T3-L1 was a cell line widely used to study the metabolic process of adipocytes, and as the differentiation of the cells was activated, fat accumulation in adipocytes was activated to induce obesity.
(§2) The preadipocytes 3T3-L1 were cultured in a DMEM containing 2% fetal bovine serum (FBS) under conditions of 37° C. and 5% CO2. The preadipocytes 3T3-L1 were dispensed in a 12-well plate at a density of 1×10^5 cells/well, and then further maintained for 2 days at a 100% confluency point. The preadipocytes were cultured for 2 days in a DMEM medium (hereinafter referred to as a ‘differentiation medium’) containing a differentiation ingredient (including 10 μg/ml insulin, 0.1 μM dexamethasone and 0.5 mM IBMX) and 10% FBS to induce the differentiation into adipocytes. After 48 hours of culture, the preadipocytes were cultured for 2 days in 10% FBS DMEM (hereinafter referred to as a ‘culture medium’) containing 1 μg/ml insulin. Thereafter, the culture medium was replaced with a 10% FBS DMEM culture medium every 2 days. During the induction of adipocytes differentiation, depending on a purpose of the experiment, a deoxycholic acid-peptide conjugate was treated or not in each culture medium at a concentration of 1 μM or 10 μM, and the differentiation degree of adipocytes was observed on day 7, when the differentiation was completed.
Specifically, the degree of differentiation of adipocytes induced in Preparation Example 1 was first confirmed under a microscope through oil red O staining, and for the staining degree of adipocytes, the degree of fat accumulated in the cells was calculated by measuring absorbance with a spectrophotometer at a wavelength of 510 nm. A group treated with a β3 adrenergic receptor agonist CL316243 or TNF-α was used as a positive control group.
as §1, with “fat accumulation inhibitory” for “lipolysis”, “degree” for “amount”, “differentiation of adipocytes and” for “glycerol released from”, “degree of lipid accumulation were” for “adipose tissue was”, “1-1.” for “3-1.”

adipose tissue = experiment: H&E staining, size of adipocytes in adipose tissue; format: cell-based, BL/6 mice; conditions: vs control group
Method: (§3) Adipose tissue was collected from the abdomen of 9-week-old BL/6 mice, placed in a 100 mm×15 mm culture dish, and then cultured in a culture medium overnight. The adipose tissue was divided to have the same weight, transferred to a 24-well plate, and then used in the following Experimental Examples.
In order to confirm the lipolysis effect in adipose tissue by the deoxycholic acid-peptide conjugate, H&E staining was performed on the adipose tissue obtained in Preparation Example 2 to confirm the sizes of adipocytes.
Specifically, the adipose tissue was cut, attached to a paraffin slide, and dried at 50° C. The slide attached with the dried adipose tissue was placed in Xylene 1, 2, and 3 for 5 minutes each, and the paraffin was removed. Thereafter, the slide was put into 100% ethanol for 2 minutes, and then sequentially put into 90%, 80%, and 70% ethanol to be re-hydrated. The re-hydrated slide was stained in a hematoxylin solution, washed, and then stained with Eosin Y. Thereafter, the slide was sequentially put into 90%, 80%, and 70% ethanol, and then put into Xylene 3, 2, and 1, and then mounted with a xylene-based mounting medium to prevent air bubbles from entering the tissue, and then dried. Then, the dried slide was observed under an optical microscope.

[2] = test system: UCP1, PRDM and Cidea genes; experiment: RT-PCR of thermogenesis-related genes of brown adipocytes in adipose tissue; format: cell-based, BL/6 mice; conditions: 1 and 10 μM, 72 hours
Method: as §3
(§4) The adipocytes obtained in Preparation Example 1 or the adipose tissue obtained in Preparation Example 2 were treated with the deoxycholic acid-peptide conjugate of the present invention, cultured, and then recovered, and RNA was extracted with Trizol (Thermo Fisher Scientific, USA). From the extracted RNA, complementary DNA to RNA was obtained using TOPScript™ RT DryMIX (enzynomics, Korea) and then polymerase chain reaction (PCR) was performed using TOPsimple™ DryMIX-nTaq (enzynomics, Korea). Thereafter, PCR products were loaded on a 1.5% agarose gel to compare the mRNA expression levels of the growth factors.
(§5) Specifically, the adipose tissue obtained in Preparation Example 2 was treated with 1 μM and 10 μM of the deoxycholic acid-peptide conjugate and 1 μM of CL316,243 (Sigma, USA) as a positive control group and further cultured for 72 hours. After the cells were recovered and the polymerase chain reaction was performed by the method described in Experimental Example 4-1, the expression products were loaded on an agarose gel to confirm the mRNA expression levels of genes related to adipogenesis.

HSL and PLIN genes = experiment: RT-PCR of lipolysis genes in adipose tissue; format: cell-based, BL/6 mice; conditions: 1 and 10 μM, 72 hours
Method: as §3, §4
Specifically, the adipose tissue obtained in Preparation Example 2 was treated with 1 μM and 10 μM of the deoxycholic acid-peptide conjugate and 1 μM of CL316243 (Sigma, USA) as a positive control group and cultured for 72 hours. […]

AMPKa1, HSL, PGC1a genes = experiment: RT-PCR of lipolysis-related genes in adipocytes; format: cell-based; conditions: 1 and 10 μM; 24 hours; differentiated adipocytes
Method: as §2, §4
Specifically, the differentiated adipocytes obtained in Preparation Example 1 were treated with 1 μM and 10 μM of the deoxycholic acid-peptide conjugate, and then cultured for 24 hours. […]

[3] = test system: IL-15 gene in C2C12 cells; experiment: RT-PCR of IL-15 gene in muscle cells; format: cell-based, mouse; conditions: 1 and 10 μM; 6 hours; C2C12 myotubes
Method: as §4
Specifically, C2C12 cells, which were mouse myoblasts, were inoculated into a 6-well plate at a density of 2×10^5 cells/well, and then cultured in a DMEM (10% FBS) medium for 3 days. When the cells had grown to about 70 to 80% of the plate, the medium was replaced with a differentiation medium (DMEM, 5% horse serum) and then cultured for 3 days. Thereafter, the medium was replaced with the differentiation medium (DMEM, 2% horse serum) and cultured for 4 days to induce differentiation from myoblasts to myotubes. Then, the medium was replaced with a serum-free medium and cultured for 2 hours, and treated with 1 μM and 10 μM of the deoxycholic acid-peptide conjugate for 6 hours and cultured in an environment of 37° C. and 5% CO2. […]

[4] = test system: adiponectin and leptin genes; experiment: RT-PCR of fat metabolism genes in adipocytes; format: cell-based; conditions: 1 and 10 μM, 1, 3, 6 hours
Method: as §2, with “completed. […]” for “completed.”

[5] = test system: ACCα, FAS and PPARγ genes; experiment: RT-PCR of adipogenesis genes in adipose tissue; format: cell-based, BL/6 mice; conditions: 1 and 10 μM, 72 hours
Method: as §3, §4, §5

Row | Compound | glycerol release amount (white adipose tissue) [%] | solubility in water (dissolution, visual) [1] | lipid accumulation amount (3T3-L1 cells) [%] | sizes of adipocytes (adipose tissue) | amount of glycerol released (white adipose tissue; 1, 10, 100 μM, 48 hours, adipose tissue of high-fat diet mice, vs control group) | Cidea mRNA expression [2] | PRDM mRNA expression [2] | UCP1 mRNA expression [2] | fat staining in adipocytes (oil red O) (3T3-L1 cells; day 7, positive control CL316243 or TNF-α) | HSL mRNA expression (HSL and PLIN genes) | PLIN mRNA expression (HSL and PLIN genes) | AMPKa1 mRNA expression (AMPKa1, HSL, PGC1a genes) | HSL mRNA expression (AMPKa1, HSL, PGC1a genes) | PGC1a mRNA expression (AMPKa1, HSL, PGC1a genes) | IL-15 mRNA expression [3] | adiponectin mRNA expression [4] | leptin mRNA expression [4] | ACCα mRNA expression [5] | FAS mRNA expression [5] | PPARγ mRNA expression [5]
1 | C[C@H](CCC(=O)O)[C@H]1CC[C@H]2[C@@H]3CC[C@@H]4C[C@H](O)CC[C@]4(C)[C@H]3C[C@H](O)[C@]12C [deoxycholic acid, 3,12-dihydroxycholan-24-oic acid] | 116 | hardly dissolved | 93 |  |  |  |  |  |  |  |  |  |  |  |  |  |  |  |  | 
2 | CCCC(NC(=O)C(CC(C)C)NC(=O)C(Cc1ccccc1)NC(=O)C(CCCCN)NC(=O)CC[C@@H](C)[C@H]1CC[C@H]2[C@@H]3CC[C@@H]4C[C@H](O)CC[C@]4(C)[C@H]3C[C@H](O)[C@]12C)C(=O)NC(CCCCN)C(=O)O (stereo partly shown) [deoxycholic acid-peptide conjugate] (Deoxycholoyl-[ξK][ξF][ξL][ξNva][ξK]-OH) | 175 | completely dissolved | 78 | decreased | increased in a concentration-dependent manner | increased | increased | increased | reduced at the same level as the positive control group | increased in a concentration dependent manner | increased in a concentration dependent manner | increased | increased | increased | increased | increased | increased | decreased | decreased | decreased
3 | Lys Phe Leu Ile Lys (KFLIK) [peptide of SEQ ID NO: 1] | 106 |  | 89 |  |  |  |  |  |  |  |  |  |  |  |  |  |  |  |  | 
